Columns and labels:
[1] = biological target: T1, intracellular phosphorylation of EGFR in NCI-H1975 cell line that harbors the EGFR L858R T790M mutations (Homo sapiens, UniProt P00533, L858R/T790M); assay: NCI-H1975 pEGFR AlphaLISA assay; format: cell-based; conditions: NCI-H1975 cells (EGFR L858R T790M), p-EGFR (Tyr1068), 4-5 hours incubation; read-out: Ext pEGFR H1975 GMean IC50 (nM) Protocol: @Pharmaron AlphaLISA (Num)
T1 construct: NCI-H1975 cell line that harbors the EGFR L858R T790M mutations (ATCC, CRL-5908); host or cells: NCI-H1975
T1 sequence (P00533 25-1210 T790M/L858R): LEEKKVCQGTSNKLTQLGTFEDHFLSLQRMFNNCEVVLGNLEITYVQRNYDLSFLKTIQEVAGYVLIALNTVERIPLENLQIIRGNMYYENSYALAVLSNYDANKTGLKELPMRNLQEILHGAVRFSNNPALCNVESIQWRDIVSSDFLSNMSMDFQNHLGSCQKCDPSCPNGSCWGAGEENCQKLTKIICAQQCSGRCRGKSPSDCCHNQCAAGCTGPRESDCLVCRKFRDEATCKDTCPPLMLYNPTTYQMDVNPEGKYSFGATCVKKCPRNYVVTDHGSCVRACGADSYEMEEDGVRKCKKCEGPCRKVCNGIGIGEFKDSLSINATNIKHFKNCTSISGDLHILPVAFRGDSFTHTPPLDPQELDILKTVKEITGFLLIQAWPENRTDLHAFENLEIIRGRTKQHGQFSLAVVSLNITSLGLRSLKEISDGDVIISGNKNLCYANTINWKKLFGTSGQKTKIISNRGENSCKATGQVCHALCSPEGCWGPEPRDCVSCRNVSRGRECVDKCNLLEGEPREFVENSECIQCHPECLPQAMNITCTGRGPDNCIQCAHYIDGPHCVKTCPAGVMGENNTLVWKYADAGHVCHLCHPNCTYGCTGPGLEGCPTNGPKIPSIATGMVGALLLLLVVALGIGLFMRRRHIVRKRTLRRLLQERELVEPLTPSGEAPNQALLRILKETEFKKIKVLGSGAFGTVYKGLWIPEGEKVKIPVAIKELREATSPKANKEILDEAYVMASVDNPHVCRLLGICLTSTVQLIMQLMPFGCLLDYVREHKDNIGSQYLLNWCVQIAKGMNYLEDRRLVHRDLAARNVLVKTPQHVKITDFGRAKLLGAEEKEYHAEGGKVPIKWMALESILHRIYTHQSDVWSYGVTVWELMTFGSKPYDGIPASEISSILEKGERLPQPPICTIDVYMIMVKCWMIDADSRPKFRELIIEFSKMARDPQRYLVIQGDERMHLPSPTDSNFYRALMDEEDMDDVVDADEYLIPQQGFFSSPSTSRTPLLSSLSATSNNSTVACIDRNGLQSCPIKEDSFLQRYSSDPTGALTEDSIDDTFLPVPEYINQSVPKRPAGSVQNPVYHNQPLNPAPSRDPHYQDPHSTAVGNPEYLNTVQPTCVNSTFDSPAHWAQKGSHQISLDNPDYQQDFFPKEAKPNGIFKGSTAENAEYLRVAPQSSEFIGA
Protocol: On the next day, the test compounds and DMSO control were added into H1975 cell plate followed by incubation at 37C/5% CO2 for 4-5 hours. […] Then 5 μL of a donor bead mix was added to each well followed by overnight incubation at room temperature in dark. On the next day, the plate was read at a compatible plate reader to obtain pEGFR signal. Percent of pEGFR inhibition was plotted against log concentration of compounds to generate IC50 values.

EGFR (L858R T790M C797S) = biological target: T2, EGFR (L858R T790M C797S) (Homo sapiens, UniProt P00533, C797S/L858R/T790M); assay: Biochemical EGFR inhibition assay (Caliper mobility shift), EGFR LRTMCS; conditions: LRTMCS (PH) IC50 (nM) @ 1 mM ATP (Num), EGFR LRTMCS mutant
T2 construct: purchased SignalChem E10-122VG
T2 sequence (P00533 25-1210 T790M/C797S/L858R): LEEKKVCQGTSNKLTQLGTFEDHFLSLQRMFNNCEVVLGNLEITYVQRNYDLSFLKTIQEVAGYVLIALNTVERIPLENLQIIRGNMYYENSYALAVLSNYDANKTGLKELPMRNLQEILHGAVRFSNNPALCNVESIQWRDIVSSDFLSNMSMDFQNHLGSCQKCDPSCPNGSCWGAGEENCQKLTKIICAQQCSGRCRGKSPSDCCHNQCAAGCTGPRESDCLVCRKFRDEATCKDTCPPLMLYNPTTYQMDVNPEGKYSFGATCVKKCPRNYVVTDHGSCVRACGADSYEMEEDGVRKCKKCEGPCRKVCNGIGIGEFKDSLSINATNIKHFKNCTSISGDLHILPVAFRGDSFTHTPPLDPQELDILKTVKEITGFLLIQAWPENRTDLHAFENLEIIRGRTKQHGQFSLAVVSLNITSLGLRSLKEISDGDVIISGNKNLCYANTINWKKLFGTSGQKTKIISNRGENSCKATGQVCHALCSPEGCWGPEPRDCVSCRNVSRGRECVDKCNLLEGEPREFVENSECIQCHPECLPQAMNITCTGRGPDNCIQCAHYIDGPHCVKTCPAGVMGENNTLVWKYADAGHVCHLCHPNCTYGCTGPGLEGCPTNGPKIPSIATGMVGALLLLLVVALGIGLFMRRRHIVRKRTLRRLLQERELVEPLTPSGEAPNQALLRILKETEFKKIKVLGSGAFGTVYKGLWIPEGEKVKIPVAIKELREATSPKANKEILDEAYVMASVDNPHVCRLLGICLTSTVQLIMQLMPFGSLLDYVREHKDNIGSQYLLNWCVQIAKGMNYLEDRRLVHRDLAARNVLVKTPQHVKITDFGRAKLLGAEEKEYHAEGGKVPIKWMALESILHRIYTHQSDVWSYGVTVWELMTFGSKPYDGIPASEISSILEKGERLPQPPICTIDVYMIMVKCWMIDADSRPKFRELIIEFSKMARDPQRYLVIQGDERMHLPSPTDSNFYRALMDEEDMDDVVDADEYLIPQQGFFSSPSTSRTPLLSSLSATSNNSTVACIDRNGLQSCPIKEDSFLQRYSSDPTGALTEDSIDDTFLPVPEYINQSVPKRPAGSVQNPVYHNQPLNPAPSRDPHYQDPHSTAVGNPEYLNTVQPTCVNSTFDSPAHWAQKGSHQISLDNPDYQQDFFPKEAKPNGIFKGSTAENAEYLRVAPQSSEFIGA
Outline: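 Apparent IC50s were derived by plotting percent activity against the log of compound concentration. Activity was measured as phosphopeptide electrophoretically separated from substrate, after reactions at room temperature reached 10% to 20% phosphorylation and were halted with 35 mM EDTA.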

SMILES | IC50 [1] [nM] | IC50 (EGFR (L858R T790M C797S)) [nM]
CC(C)c1cnc(N2CC3(CCS3(=O)=O)C2)c2cnc(Nc3ccnc(N4CC[C@@](C)(O)[C@@H](F)C4)n3)cc12 (single isomer, unassigned) [Example 174, 6-(6-((2-((3S,4R)-3-fluoro-4-hydroxy-4-methylpiperidin-1-yl)pyrimidin-4-yl)amino)-4-isopropyl-2,7-naphthyridin-1-yl)-1-thia-6-azaspiro[3.3]heptane 1,1-dioxide or 6-(6-((2-((3R,4S)-3-fluoro-4-hydroxy-4-methylpiperidin-1-yl)pyrimidin-4-yl)amino)-4-isopropyl-2,7-naphthyridin-1-yl)-1-thia-6-azaspiro[3.3]heptane 1,1-dioxide] | > 50 | 20 to 30
CC(C)c1ccc(N2CC(c3nncn3C)C2)c2cnc(Nc3ccnc(N4CC[C@@H](O)[C@@](C)(F)C4)n3)cc12 [Example 112, (3S,4R)-3-fluoro-1-(4-((5-isopropyl-8-(3-(4-methyl-4H-1,2,4-triazol-3-yl)azetidin-1-yl)isoquinolin-3-yl)amino)pyrimidin-2-yl)-3-methylpiperidin-4-ol] | 10 to 20 | < 15
[2H]C([2H])([2H])O[C@@H]1CCN(c2nccc(Nc3cc4c(C(C)C)cnc(N5C[C@H](OCCO)[C@H]5C)c4cn3)n2)C[C@@H]1F [Example 140, 2-(((2R,3S)-1-(6-((2-((3S,4R)-3-fluoro-4-(methoxy-d3)piperidin-1-yl)pyrimidin-4-yl)amino)-4-isopropyl-2,7-naphthyridin-1-yl)-2-methylazetidin-3-yl)oxy)ethan-1-ol] | < 10 | < 15
CC(C)c1cnc(-c2cnn(S(C)(=O)=O)c2)c2cnc(Nc3ccnc(N4CC[C@@H](O)[C@@](C)(F)C4)n3)cc12 [Example 18, (3S,4R)-3-fluoro-1-(4-((5-isopropyl-8-(1-(methylsulfonyl)-1H-pyrazol-4-yl)-2,7-naphthyridin-3-yl)amino)pyrimidin-2-yl)-3-methylpiperidin-4-ol] | 30 to 50 | 15 to 20
CC(C)c1nnc(N2CCCC2)c2cnc(Nc3ccnc(N4CC[C@@H](O)[C@@](C)(F)C4)n3)cc12 [Example 114, (3S,4R)-3-fluoro-1-(4-((1-isopropyl-4-(pyrrolidin-1-yl)pyrido[3,4-d]pyridazin-7-yl)amino)pyrimidin-2-yl)-3-methylpiperidin-4-ol] | > 50 | 30 to 100
CC(C)Oc1cnc(N2CC[C@H]2C)c2cnc(Nc3ccnc(N4CC[C@@H](O)[C@@H](F)C4)n3)cc12 [Example 153, (3S,4R)-3-fluoro-1-(4-((5-isopropoxy-8-((R)-2-methylazetidin-1-yl)-2,7-naphthyridin-3-yl)amino)pyrimidin-2-yl)piperidin-4-ol] | > 50 | 30 to 100
CC(C)c1cnc(-c2cn(C)nn2)c2cnc(Nc3ccnc(N4CCC5(CCO5)CC4)n3)cc12 [Example 23, N-(2-(1-oxa-7-azaspiro[3.5]nonan-7-yl)pyrimidin-4-yl)-5-isopropyl-8-(1-methyl-1H-1,2,3-triazol-4-yl)-2,7-naphthyridin-3-amine] | > 50 | < 15
CC(C)c1ncc(-c2cnn(C)c2)c2cnc(Nc3ccnc(N4CC[C@@H](O)[C@@](C)(F)C4)n3)cc12 [Example 14, (3S,4R)-3-fluoro-1-(4-((5-isopropyl-8-(1-methyl-1H-pyrazol-4-yl)-2,6-naphthyridin-3-yl)amino)pyrimidin-2-yl)-3-methylpiperidin-4-ol] | > 50 | < 15

Continued, values first:

IC50 [1] [nM] | IC50 (EGFR (L858R T790M C797S)) [nM] | SMILES
10 to 20 | < 15 | CC(C)c1cnc(N2CC[C@H]2C(F)F)c2cnc(Nc3ccnc(N4CC[C@@H](O)[C@@](C)(F)C4)n3)cc12 (single isomer, unassigned) [Example 204, (3S,4R)-1-(4-((8-((S)-2-(difluoromethyl)azetidin-1-yl)-5-isopropyl-2,7-naphthyridin-3-yl)amino)pyrimidin-2-yl)-3-fluoro-3-methylpiperidin-4-ol or (3S,4R)-1-(4-((8-((R)-2-(difluoromethyl)azetidin-1-yl)-5-isopropyl-2,7-naphthyridin-3-yl)amino)pyrimidin-2-yl)-3-fluoro-3-methylpiperidin-4-ol]
> 50 | 30 to 100 | CC(C)c1cnc(N2CC(CP(C)(C)=O)C2)c2cnc(Nc3ccnc(N4CC[C@@H](O)[C@@](C)(F)C4)n3)cc12 [Example 79, ((1-(6-((2-((3S,4R)-3-fluoro-4-hydroxy-3-methylpiperidin-1-yl)pyrimidin-4-yl)amino)-4-isopropyl-2,7-naphthyridin-1-yl)azetidin-3-yl)methyl)dimethylphosphine oxide]
10 to 20 | < 15 | CC(C)c1ccc(N2C[C@H](O)[C@H]2C)c2cnc(Nc3ccnc(N4CC[C@@H](O)[C@@](C)(F)C4)n3)cc12 [Example 103, (3S,4R)-3-fluoro-1-(4-((8-((2R,3S)-3-hydroxy-2-methylazetidin-1-yl)-5-isopropylisoquinolin-3-yl)amino)pyrimidin-2-yl)-3-methylpiperidin-4-ol]
30 to 50 | < 15 | CC(C)c1cnc(N2CC(O)C2)c2cnc(Nc3ccnc(N4CC[C@@H](O)[C@@](C)(F)C4)n3)cc12 [Example 62, (3S,4R)-3-fluoro-1-(4-((8-(3-hydroxyazetidin-1-yl)-5-isopropyl-2,7-naphthyridin-3-yl)amino)pyrimidin-2-yl)-3-methylpiperidin-4-ol]
10 to 20 | < 15 | CC(C)c1cnc(N2C[C@H](O)[C@H]2C)c2cnc(Nc3ccnc(N4CC[C@@H](O)[C@@H](F)C4)n3)cc12 [Example 154, (3S,4R)-3-fluoro-1-(4-((8-((2R,3S)-3-hydroxy-2-methylazetidin-1-yl)-5-isopropyl-2,7-naphthyridin-3-yl)amino)pyrimidin-2-yl)piperidin-4-ol]
10 to 20 | < 15 | CO[C@H]1CN(c2ncc([C@@H](C)CO)c3cc(Nc4ccnc(N5CC[C@@H](O)[C@@](C)(F)C5)n4)ncc23)[C@@H]1C (single isomer, unassigned) [Example 212, (3S,4R)-3-fluoro-1-(4-((5-((R)-1-hydroxypropan-2-yl)-8-((2R,3S)-3-methoxy-2-methylazetidin-1-yl)-2,7-naphthyridin-3-yl)amino)pyrimidin-2-yl)-3-methylpiperidin-4-ol or (3S,4R)-3-fluoro-1-(4-((5-((S)-1-hydroxypropan-2-yl)-8-((2R,3S)-3-methoxy-2-methylazetidin-1-yl)-2,7-naphthyridin-3-yl)amino)pyrimidin-2-yl)-3-methylpiperidin-4-ol]
30 to 50 | < 15 | CC(C)c1cnc(N2CC(CO)C2)c2cnc(Nc3ccnc(N4CC[C@@H](O)[C@@](C)(F)C4)n3)cc12 [Example 61, (3S,4R)-3-fluoro-1-(4-((8-(3-(hydroxymethyl)azetidin-1-yl)-5-isopropyl-2,7-naphthyridin-3-yl)amino)pyrimidin-2-yl)-3-methylpiperidin-4-ol]
20 to 30 | < 15 | CNC(=O)CC1CN(c2ncc(C(C)C)c3cc(Nc4ccnc(N5CC[C@@H](O)[C@@](C)(F)C5)n4)ncc23)C1 [Example 87, 2-(1-(6-((2-((3S,4R)-3-fluoro-4-hydroxy-3-methylpiperidin-1-yl)pyrimidin-4-yl)amino)-4-isopropyl-2,7-naphthyridin-1-yl)azetidin-3-yl)-N-methylacetamide]
10 to 20 | < 15 | CC(C)c1cnc(N2CC[C@]3(C2)CC3(F)F)c2cnc(Nc3ccnc(N4CC[C@@H](O)[C@@](C)(F)C4)n3)cc12 (single isomer, unassigned) [Example 213, (3S,4R)-1-(4-((8-((R)-1,1-difluoro-5-azaspiro[2.4]heptan-5-yl)-5-isopropyl-2,7-naphthyridin-3-yl)amino)pyrimidin-2-yl)-3-fluoro-3-methylpiperidin-4-ol or (3S,4R)-1-(4-((8-((S)-1,1-difluoro-5-azaspiro[2.4]heptan-5-yl)-5-isopropyl-2,7-naphthyridin-3-yl)amino)pyrimidin-2-yl)-3-fluoro-3-methylpiperidin-4-ol]
10 to 20 | < 15 | C[C@@H](CO)c1cnc(N2CC[C@@H]2C)c2cnc(Nc3ccnc(N4CC[C@@H](O)[C@@](C)(F)C4)n3)cc12 (single isomer, unassigned) [Example 189]
30 to 50 | 15 to 20 | CC(C)c1cnc(N2CC(F)(C(=O)N(C)C)C2)c2cnc(Nc3ccnc(N4CC[C@@H](O)[C@@](C)(F)C4)n3)cc12 [Example 92, 3-fluoro-1-(6-((2-((3S,4R)-3-fluoro-4-hydroxy-3-methylpiperidin-1-yl)pyrimidin-4-yl)amino)-4-isopropyl-2,7-naphthyridin-1-yl)-N,N-dimethylazetidine-3-carboxamide]
30 to 50 | 20 to 30 | COCC1(F)CN(c2ncc(C(C)C)c3cc(Nc4ccnc(N5CC[C@@H](O)[C@@](C)(F)C5)n4)ncc23)C1 [Example 68, (3S,4R)-3-fluoro-1-(4-((8-(3-fluoro-3-(methoxymethyl)azetidin-1-yl)-5-isopropyl-2,7-naphthyridin-3-yl)amino)pyrimidin-2-yl)-3-methylpiperidin-4-ol]

Reference: patent US20240382483A1, “HETEROCYCLIC EGFR INHIBITORS FOR USE IN THE TREATMENT OF CANCER” (Blueprint Medicines Corporation, priority 2021, published 2024)
